For this experiment, the target named is T1, porcine gastric H+/K+-ATPase (Sus scrofa, UniProt P19156).
T1 construct: The gastric vesicles were collected from interface on 0.25 M sucrose layer containing 7% Ficoll; from tissue; host or cells: mucous membrane of fresh porcine stomachs (gastric vesicles)
T1 sequence (P19156 2-1034 limits assumed): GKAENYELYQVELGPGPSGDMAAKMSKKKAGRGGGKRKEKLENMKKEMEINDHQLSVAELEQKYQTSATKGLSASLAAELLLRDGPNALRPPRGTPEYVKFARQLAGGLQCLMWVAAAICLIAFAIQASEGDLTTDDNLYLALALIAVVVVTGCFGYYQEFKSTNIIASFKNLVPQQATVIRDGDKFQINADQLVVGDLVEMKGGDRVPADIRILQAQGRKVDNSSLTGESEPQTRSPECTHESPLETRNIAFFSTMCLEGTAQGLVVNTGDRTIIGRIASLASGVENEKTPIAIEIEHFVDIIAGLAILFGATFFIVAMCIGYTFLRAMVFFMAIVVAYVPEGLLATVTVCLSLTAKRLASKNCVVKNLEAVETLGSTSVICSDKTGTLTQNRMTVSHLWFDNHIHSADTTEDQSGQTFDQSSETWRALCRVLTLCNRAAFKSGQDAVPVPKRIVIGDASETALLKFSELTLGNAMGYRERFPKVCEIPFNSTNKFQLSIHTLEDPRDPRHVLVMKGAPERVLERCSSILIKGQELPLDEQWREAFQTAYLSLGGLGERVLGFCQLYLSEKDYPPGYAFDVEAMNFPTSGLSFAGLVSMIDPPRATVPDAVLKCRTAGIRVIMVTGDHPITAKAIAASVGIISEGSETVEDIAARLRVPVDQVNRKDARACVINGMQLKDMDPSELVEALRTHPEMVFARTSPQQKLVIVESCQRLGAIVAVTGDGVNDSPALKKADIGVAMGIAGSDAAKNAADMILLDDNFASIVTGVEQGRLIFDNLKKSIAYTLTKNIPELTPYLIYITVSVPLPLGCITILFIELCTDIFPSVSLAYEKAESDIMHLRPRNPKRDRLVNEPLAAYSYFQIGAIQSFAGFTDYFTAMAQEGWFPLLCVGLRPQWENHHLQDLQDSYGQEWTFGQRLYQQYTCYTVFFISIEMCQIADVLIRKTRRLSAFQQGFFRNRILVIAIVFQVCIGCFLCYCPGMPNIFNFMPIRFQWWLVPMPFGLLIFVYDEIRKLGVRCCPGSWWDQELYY
T1 sequence (P18434 whole entry partner): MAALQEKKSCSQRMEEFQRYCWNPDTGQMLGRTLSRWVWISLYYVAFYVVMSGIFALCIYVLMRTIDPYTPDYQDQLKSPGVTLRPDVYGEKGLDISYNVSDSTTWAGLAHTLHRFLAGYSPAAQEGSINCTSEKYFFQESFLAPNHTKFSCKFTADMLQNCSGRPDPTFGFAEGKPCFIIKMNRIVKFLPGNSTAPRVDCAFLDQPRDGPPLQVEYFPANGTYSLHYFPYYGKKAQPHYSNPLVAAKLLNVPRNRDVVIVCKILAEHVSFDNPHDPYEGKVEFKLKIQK
Briefly: Ion-leaky porcine gastric H+/K+-ATPase inhibition. The class given is biochemical. The settings on record: ion-leaky lyophilized porcine gastric vesicles, 5 mM KCl, pH 6.4, 37° C., 30 minutes; read-out: IC50 values of the inhibitory activity. How it is done:
The porcine gastric vesicles for Porcine gastric H^+/K^+-ATPase inhibition assays were prepared from mucous membrane in fresh porcine stomachs by homogenization with a tight-fitted polytetrafluoroethylene (Teflone®) homogenizer in 0.25 M sucrose at 4° C. The crude pellet was removed with centrifugation at 20,000 g for 30 min. Then supernatant was centrifuged at 100,000 g for 30 min. The resulting pellet was re-suspended in 0.25 M sucrose, and then subjected to density gradient centrifugation at 132,000 g for 90 min. The gastric vesicles were collected from interface on 0.25 M sucrose layer containing 7% Ficoll™ PM400 (Amersham Biosciences). This procedure was performed in a cold room.
Ion-leaky porcine gastric H^+/K^+-ATPase inhibition was measured according to the modified method described in Biochemical Pharmacology, 1988, 37, 2231-2236.
The isolated vesicles were lyophilized, and then kept in deep-freezer until use. For enzyme assay, lyophilized vesicles were reconstituted with 3 mM MgSO4 containing 40 mM Bis-tris (pH 6.4 at 37° C.).
Enzyme reaction was performed incubating 5 mM KCl, 3 mM Na2ATP, 3 mM MgSO4 and 1.0 μg of reconstituted vesicles for 30 minutes at 37° C. in a final 60 μl of reaction mixture (40 mM Bis-tris, pH 6.4) with or without the test compound. Enzyme reaction was stopped by adding 10% sodium dodecyl sulphate (SDS). Released inorganic phosphate from ATP was detected by incubation with mixture of 1 part of 35 mM ammonium molybdate tetrahydrate in 15 mM Zinc acetate hydrate and 4 parts of 10% ascorbic acid (pH 5.0), resulting in phosphomolybdate, which has optical density at 750 nm.
As to `COCCn1c(C)nc2cc(C(=O)N(C)CCO)c3c(c21)OC(c1ccc(F)cc1F)CC3` (single isomer, unassigned; (+)) [Example 13, (+)-8-(2,4-Difluorophenyl)-N-(2-hydroxyethyl)-1-(2-methoxyethyl)-N,2-dimethyl-1,6,7,8-tetrahydrochromeno[7,8-d]imidazole-5-carboxamide], the half-maximal inhibitory concentration (IC50) (commonly the midpoint of a concentration-inhibition curve) was determined as 340 nM.

On to `COCCn1c(C)nc2cc(C(=O)N3CCC3)c3c(c21)OC(c1ccccc1)CC3` (racemic) [Example 15, 5-(Azetidin-1-ylcarbonyl)-1-(2-methoxyethyl)-2-methyl-8-phenyl-1,6,7,8-tetrahydrochromeno[7,8-d]imidazole], for which the IC50 was 200 nM.

Turning to `COCCn1c(C)nc2cc(C(=O)N(C)CCO)c3c(c21)OC(c1ccc(F)cc1F)CC3` (racemic) [Example 11, 8-(2,4-Difluorophenyl)-N-(2-hydroxyethyl)-1-(2-methoxyethyl)-N,2-dimethyl-1,6,7,8-tetrahydrochromeno[7,8-d]imidazole-5-carboxamide], the IC50 turned out to be 210 nM.

`COCCn1c(C)nc2cc(C(=O)N3CCC3)c3c(c21)OC(c1ccccc1)CC3` (single isomer, unassigned; (-)) [Example 16, (−)-5-(Azetidin-1-ylcarbonyl)-1-(2-methoxyethyl)-2-methyl-8-phenyl-1,6,7,8-tetrahydrochromeno[7,8-d]imidazole]: the IC50 turned out to be 74 nM.

As for `COCCn1c(C)nc2cc(C(=O)N3CC(F)C3)c3c(c21)OC(c1ccccc1)CC3` (centres unmarked) [Example 14, 5-[(3-Fluoroazetidin-1-yl)carbonyl]-1-(2-methoxyethyl)-2-methyl-8-phenyl-1,6,7,8-tetrahydrochromeno[7,8-d]imidazole], the concentration for half-maximal inhibition (IC50) was 270 nM.

As to `COCCn1c(C)nc2cc(C(=O)N(C)C)c3c(c21)OC(c1ccccc1)CC3` (single isomer, unassigned; (-)) [Example 3, (−)-1-(2-Methoxyethyl)-N,N,2-trimethyl-8-phenyl-1,6,7,8-tetrahydrochromeno[7,8-d]imidazole-5-carboxamide], the IC50 is 68 nM.

`COCCn1c(C)nc2cc(C(=O)N(C)C)c3c(c21)OC(c1ccccc1)CC3` (single isomer, unassigned; (+)) [Example 2, (+)-1-(2-Methoxyethyl)-N,N,2-trimethyl-8-phenyl-1,6,7,8-tetrahydrochromeno[7,8-d]imidazole-5-carboxamide]: the IC50 is 520 nM.

As to `COCCn1c(C)nc2cc(C(=O)N(C)C)c3c(c21)OC(c1ccc(F)cc1)CC3` (racemic) [Example 5, 8-(4-Fluorophenyl)-1-(2-methoxyethyl)-N,N,2-trimethyl-1,6,7,8-tetrahydrochromeno[7,8-d]imidazole-5-carboxamide], the IC50 worked out at 88 nM.

With `COCCn1c(C)nc2cc(C(=O)N(C)C)c3c(c21)OC(c1ccccc1)CC3` (racemic) [Example 1, 1-(2-Methoxyethyl)-N,N,2-trimethyl-8-phenyl-1,6,7,8-tetrahydrochromeno[7,8-d]imidazole-5-carboxamide], the IC50 came out at 98 nM.

Consider `COCCn1c(C)nc2cc(C(=O)N(C)CCO)c3c(c21)OC(c1ccccc1)CC3` (centres unmarked) [Example 4, N-(2-Hydroxyethyl)-1-(2-methoxyethyl)-N,2-dimethyl-8-phenyl-1,6,7,8-tetrahydrochromeno[7,8-d]imidazole-5-carboxamide], for which the IC50 was 190 nM.

Take `COCCn1c(C)nc2cc(C(=O)N(C)C)c3c(c21)OC(c1ccc(F)cc1)CC3` (single isomer, unassigned; (-)) [Example 7, (−)-8-(4-Fluorophenyl)-1-(2-methoxyethyl)-N,N,2-trimethyl-1,6,7,8-tetrahydrochromeno[7,8-d]imidazole-5-carboxamide]: the IC50 is 38 nM.

In the case of `COCCn1c(C)nc2cc(C(=O)N(C)C)c3c(c21)OC(c1ccc(F)cc1)CC3` (single isomer, unassigned; (+)) [Example 6, (+)-8-(4-Fluorophenyl)-1-(2-methoxyethyl)-N,N,2-trimethyl-1,6,7,8-tetrahydrochromeno[7,8-d]imidazole-5-carboxamide], the IC50 is 230 nM.

For `Cc1nc2cc(C(=O)N(C)C)c3c(c2n1CCCO)OC(c1ccc(F)cc1)CC3` (centres unmarked) [Example 8, 8-(4-Fluorophenyl)-1-(3-hydroxypropyl)-N,N,2-trimethyl-1,6,7,8-tetrahydrochromeno[7,8-d]imidazole-5-carboxamide], the IC50 was 340 nM.

As for `COCCn1c(C)nc2cc(C(=O)N3CCC3)c3c(c21)OC(c1ccccc1)CC3` (single isomer, unassigned; (+)) [Example 17, (+)-5-(Azetidin-1-ylcarbonyl)-1-(2-methoxyethyl)-2-methyl-8-phenyl-1,6,7,8-tetrahydrochromeno[7,8-d]imidazole], the IC50 stood at 1000 nM.

With `[2H]C([2H])([2H])N(C(=O)c1cc2nc(C)n(CCOC)c2c2c1CCC(c1ccccc1)O2)C([2H])([2H])[2H]` (centres unmarked) [Example 10, N,N-Di[^2H3]methyl-1-(2-methoxyethyl)-2-methyl-8-phenyl-1,6,7,8-tetrahydrochromeno[7,8-d]imidazole-5-carboxamide], the IC50 was 100 nM.

In the case of `Cc1nc2cc(C(=O)N(C)C)c3c(c2n1Cc1ccon1)OC(c1ccc(F)cc1)CC3` (centres unmarked) [Example 9, 8-(4-Fluorophenyl)-1-(isoxazol-3-ylmethyl)-N,N,2-trimethyl-1,6,7,8-tetrahydrochromeno[7,8-d]imidazole-5-carboxamide], the IC50 came to 350 nM.

As for `COCCn1c(C)nc2cc(C(=O)N(C)CCO)c3c(c21)OC(c1ccc(F)cc1F)CC3` (single isomer, unassigned; (-)) [Example 12, (−)-8-(2,4-Difluorophenyl)-N-(2-hydroxyethyl)-1-(2-methoxyethyl)-N,2-dimethyl-1,6,7,8-tetrahydrochromeno[7,8-d]imidazole-5-carboxamide], the IC50 was 90 nM.

For the origin of these results see US8466166B2, “Benzimidazole derivatives as selective acid pump inhibitors” (Raqualia Pharma Inc., priority 2006, dated 2013).
